Results on 19 molecules are retold here after patent publication US8283361B2 (AstraZeneca AB, priority 2008, dated 2012).

S. aureus GyrB ATPase, sequence (P0A0K8 whole entry): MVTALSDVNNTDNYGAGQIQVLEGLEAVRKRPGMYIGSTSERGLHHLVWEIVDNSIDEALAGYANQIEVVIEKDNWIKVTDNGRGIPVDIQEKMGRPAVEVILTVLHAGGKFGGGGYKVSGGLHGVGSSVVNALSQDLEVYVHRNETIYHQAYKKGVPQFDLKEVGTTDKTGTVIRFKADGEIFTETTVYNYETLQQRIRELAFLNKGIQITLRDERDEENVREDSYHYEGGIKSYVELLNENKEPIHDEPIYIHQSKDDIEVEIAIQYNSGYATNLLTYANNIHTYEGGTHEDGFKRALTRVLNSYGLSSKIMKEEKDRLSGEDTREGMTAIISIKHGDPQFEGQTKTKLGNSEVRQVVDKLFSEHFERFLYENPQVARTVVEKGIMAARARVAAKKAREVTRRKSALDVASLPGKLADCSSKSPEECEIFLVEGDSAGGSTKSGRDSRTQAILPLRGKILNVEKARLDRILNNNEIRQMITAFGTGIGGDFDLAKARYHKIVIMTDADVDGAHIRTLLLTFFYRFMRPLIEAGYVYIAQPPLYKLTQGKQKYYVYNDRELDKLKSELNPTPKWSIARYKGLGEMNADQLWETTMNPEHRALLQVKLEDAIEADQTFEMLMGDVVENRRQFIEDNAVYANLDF
S. aureus GyrB ATPase, sequence (P0AES4 whole entry, further chain): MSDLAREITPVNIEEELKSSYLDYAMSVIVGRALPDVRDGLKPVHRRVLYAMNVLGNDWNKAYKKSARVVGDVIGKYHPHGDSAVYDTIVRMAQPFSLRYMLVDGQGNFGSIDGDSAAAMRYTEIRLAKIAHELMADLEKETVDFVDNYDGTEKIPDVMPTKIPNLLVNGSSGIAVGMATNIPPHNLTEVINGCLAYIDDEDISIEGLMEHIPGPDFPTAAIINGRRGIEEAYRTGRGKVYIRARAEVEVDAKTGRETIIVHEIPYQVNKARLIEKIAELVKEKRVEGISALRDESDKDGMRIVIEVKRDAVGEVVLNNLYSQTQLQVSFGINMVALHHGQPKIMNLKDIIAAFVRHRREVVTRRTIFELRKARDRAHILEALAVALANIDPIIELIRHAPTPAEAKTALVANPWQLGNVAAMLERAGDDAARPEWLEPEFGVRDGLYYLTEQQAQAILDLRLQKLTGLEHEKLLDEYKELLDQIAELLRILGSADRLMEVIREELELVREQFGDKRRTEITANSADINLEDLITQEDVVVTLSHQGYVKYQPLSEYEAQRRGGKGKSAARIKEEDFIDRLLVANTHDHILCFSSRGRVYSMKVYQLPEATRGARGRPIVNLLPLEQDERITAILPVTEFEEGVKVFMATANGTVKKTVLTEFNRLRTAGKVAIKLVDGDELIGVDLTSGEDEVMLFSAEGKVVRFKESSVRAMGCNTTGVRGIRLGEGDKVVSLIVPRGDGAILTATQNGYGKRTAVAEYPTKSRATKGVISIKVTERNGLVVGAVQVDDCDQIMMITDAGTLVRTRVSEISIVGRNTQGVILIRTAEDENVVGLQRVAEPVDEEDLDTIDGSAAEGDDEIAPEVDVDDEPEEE

The target in one assay is S. aureus GyrB ATPase (Staphylococcus aureus, UniProt P0A0K8). Nature of the assay: biochemical. The settings on record: compound at 1 μM; one value per test if tested more than once; 1 µM. The method, then:
S. aureus GyrB ATPase Inhibition Activity: Compounds may be tested for inhibition of S. aureus GyrB ATPase activity using an ammonium molybdate/malachite green-based phosphate detection assay (Lanzetta, P. A., L. J. Alvarez, P. S. Reinach, and O. A. Candia, 1979, 100: 95-97). Assays can be performed in multiwell plates in 30 μl reactions containing: 50 mM Hepes buffer pH 7.5, 75 mM ammonium acetate, 8.0 mM magnesium chloride, 0.5 mM ethylenediaminetetraacetic acid, 5% glycerol, 1.0 mM 1,4-Dithio-DL-threitol, 200 nM bovine serum albumin, 1.0 μg/m1 sheared salmon sperm DNA, 250 pM E. coli GyrA, 250 pM S. aureus GyrB, 250 μM ATP, and compound in dimethylsulfoxide. Reactions can be quenched with 30 μl of ammonium molybdate/malachite green detection reagent containing 1.2 mM malachite green hydrochloride, 8.5 mM ammonium molybdate tetrahydrate, and 1 M hydrochloric acid. […] An IC50 measurement of compound potency for each compound can be determined from reactions performed in the presence of 10 different compound concentrations.
Consider `CCNC(=O)Nc1cc(-c2nc(C(F)(F)F)cs2)c(-c2ccc3c(c2)c(=O)c(C(=O)O)cn3CCOC)cn1` [Example 1, 6-(6-(3-Ethylureido)-4-(4-(trifluoromethyl)thiazol-2-yl)pyridin-3-yl)-1-(2-methoxyethyl)-4-oxo-1,4-dihydroquinoline-3-carboxylic acid], for which the “% Inhibition of S. aureus GyrB ATPase” value was 104%.

Still in this assay, the particulars now being: compound at 1 μM; one value per test if tested more than once; read-out: % Inhibition of S. aureus GyrB ATPase.
By inhibition is commonly meant the relative decrease from the control value, in per cent. Regarding `CCNC(=O)Nc1cc(-c2nc(C(F)(F)F)cs2)c(-c2ccc3c(c2)c(=O)c(C(=O)O)cn3[C@@H]2CCCC[C@@H]2O)cn1` (relative stereo) [Example 276, 6-(6-(3-ethylureido)-4-(4-(trifluoromethyl)thiazol-2-yl)pyridin-3-yl)-1-(cis-2-hydroxycyclohexyl)-4-oxo-1,4-dihydroquinoline-3-carboxylic acid], the inhibition at 1 µM was determined as 106%.

Turning to `CCNC(=O)Nc1cc(-c2nc(C(F)(F)F)cs2)c(-c2ccc3c(c2)c(=O)c(C(=O)O)cn3[C@H]2CNC[C@@H]2O)cn1` (relative stereo) [Example 310, trans 6-(6-(3-ethylureido)-4-(4-(trifluoromethyl)thiazol-2-yl)pyridin-3-yl)-1-(4-hydroxypyrrolidin-3-yl)-4-oxo-1,4-dihydroquinoline-3-carboxylic acid], the inhibition at 1 µM is 106%.

As for `CCNC(=O)Nc1cc(-c2nc(C(F)(F)F)cs2)c(-c2ccc3c(c2)c(=O)c(C(=O)O)cn3CCOC)cn1` [Example 1, 6-(6-(3-Ethylureido)-4-(4-(trifluoromethyl)thiazol-2-yl)pyridin-3-yl)-1-(2-methoxyethyl)-4-oxo-1,4-dihydroquinoline-3-carboxylic acid], the inhibition at 1 µM worked out at 100%.

As for `CCNC(=O)Nc1cc(-c2nc(-c3ccccc3)cs2)c(-c2ccc3c(c2)c(=O)c(C(=O)O)cn3CCOC)cn1` [Example 2, 6-(6-(3-ethylureido)-4-(4-phenylthiazol-2-yl)pyridin-3-yl)-1-(2-methoxyethyl)-4-oxo-1,4-dihydroquinoline-3-carboxylic acid], the inhibition at 1 µM turned out to be 100%.

Turning to `CCNC(=O)Nc1cc(-c2nc(C(F)(F)F)cs2)c(-c2ccc3c(c2)c(=O)c(C(=O)O)cn3C(COC)COC)cn1` [Example 4, 1-(1,3-dimethoxypropan-2-yl)-6-(6-(3-ethylureido)-4-(4-(trifluoromethyl)thiazol-2-yl)pyridin-3-yl)-4-oxo-1,4-dihydroquinoline-3-carboxylic acid], the inhibition at 1 µM came to 98%.

As to `CCNC(=O)Nc1cc(-c2nc(C(F)(F)F)cs2)c(-c2ccc3c(c2)c(=O)c(C(=O)O)cn3CC)cn1` [Example 10, 1-ethyl-6-(6-(3-ethylureido)-4-(4-trifluoromethylthiazol-2-yl)pyridin-3-yl)-4-oxo-1,4-dihydroquinoline-3-carboxylic acid], the inhibition at 1 µM was 99%.

On to `CCNC(=O)Nc1cc(-c2nc(C(F)(F)F)cs2)c(-c2cc3c4c(c2)c(=O)c(C(=O)O)cn4CCO3)cn1` [Example 11, 9-(6-(3-ethylureido)-4-(4-trifluoromethylthiazol-2-yl)pyridin-3-yl)-7-oxo-3,7-dihydro-2H-[1,4]oxazino[2,3,4-ij]quinoline-6-carboxylic acid], for which the inhibition at 1 µM amounted to 102%.

On to `CCNC(=O)Nc1cc(-c2nc(C(F)(F)F)cs2)c(-c2ccc3c(c2)c(=O)c(C(=O)O)cn3CCCOC)cn1` [Example 12, 6-(6-(3-ethylureido)-4-(4-(trifluoromethyl)thiazol-2-yl)pyridin-3-yl)-1-(3-methoxypropyl)-4-oxo-1,4-dihydroquinoline-3-carboxylic acid], for which the inhibition at 1 µM amounted to 93%.

Turning to `CCNC(=O)Nc1cc(-c2nc(CC)cs2)c(-c2ccc3c(c2)c(=O)c(C(=O)O)cn3CC)cn1` [Example 13, 1-ethyl-6-(6-(3-ethylureido)-4-(4-ethylthiazol-2-yl)pyridin-3-yl)-4-oxo-1,4-dihydroquinoline-3-carboxylic acid], the inhibition at 1 µM was 98%.

As to `CCNC(=O)Nc1cc(-c2nc(-c3ccccc3)cs2)c(-c2ccc3c(=O)c(C(=O)O)cn(CC)c3c2)cn1` [Example 15, 1-ethyl-7-(6-(3-ethylureido)-4-(4-phenylthiazol-2-yl)pyridin-3-yl)-4-oxo-1,4-dihydroquinoline-3-carboxylic acid], the inhibition at 1 µM amounted to 101%.

With `CCNC(=O)Nc1cc(-c2nc(-c3ccccc3)cs2)c(-c2ccc3c(c2)c(=O)c(C(=O)O)cn3CC)cn1` [Example 16, 1-ethyl-6-(6-(3-ethylureido)-4-(4-phenylthiazol-2-yl)pyridin-3-yl)-4-oxo-1,4-dihydroquinoline-3-carboxylic acid], the inhibition at 1 µM amounted to 101%.

On to `CCNC(=O)Nc1cc(-c2nc(-c3ccccc3)cs2)c(-c2cc3c4c(c2)c(=O)c(C(=O)O)cn4CCO3)cn1` [Example 17, 9-(6-(3-ethylureido)-4-(4-phenylthiazol-2-yl)pyridin-3-yl)-7-oxo-3,7-dihydro-2H-[1,4]oxazino[2,3,4-ij]quinoline-6-carboxylic acid], for which the inhibition at 1 µM was determined as 103%.

On to `CCNC(=O)Nc1cc(-c2nc(C(F)(F)F)cs2)c(-c2ccc3c(c2)c(=O)c(C(=O)O)cn3CCN(C)C)cn1` [Example 18, 1-(2-(dimethylamino)ethyl)-6-(6-(3-ethylureido)-4-(4-(trifluoromethyl)thiazol-2-yl)pyridin-3-yl)-4-oxo-1,4-dihydroquinoline-3-carboxylic acid], for which the inhibition at 1 µM turned out to be 98%.

In the case of `CCNC(=O)Nc1cc(-c2nc(C(F)(F)F)cs2)c(-c2ccc3c(c2)c(=O)c(C(=O)O)cn3CCO)cn1` [Example 19, 6-(6-(3-Ethylureido)-4-(4-(trifluoromethyl)thiazol-2-yl)pyridin-3-yl)-1-(2-hydroxyethyl)-4-oxo-1,4-dihydroquinoline-3-carboxylic acid], the inhibition at 1 µM worked out at 98%.

Turning to `CCNC(=O)Nc1cc(-c2nc(C(F)(F)F)cs2)c(-c2ccc3c(c2)c(=O)c(C(=O)O)cn3C2CC2)cn1` [Example 20, 1-Cyclopropyl-6-(6-(3-ethylureido)-4-(4-(trifluoromethyl)thiazol-2-yl)pyridin-3-yl)-4-oxo-1,4-dihydroquinoline-3-carboxylic acid], the inhibition at 1 µM came out at 96%.

`CCNC(=O)Nc1cc(-c2nc(C(F)(F)F)cs2)c(-c2ccc3c(c2)c(=O)c(C(=O)O)cn3C(C)C)cn1` [Example 21, 6-(6-(3-Ethylureido)-4-(4-(trifluoromethyl)thiazol-2-yl)pyridin-3-yl)-1-isopropyl-4-oxo-1,4-dihydroquinoline-3-carboxylic acid]: the inhibition at 1 µM was determined as 98%.

As to `CCNC(=O)Nc1cc(-c2nc(C(F)(F)F)cs2)c(-c2ccc3c(=O)c(C(=O)O)cn(C)c3c2)cn1` [Example 22, 7-(6-(3-Ethylureido)-4(4-(trifluoromethyl)thiazol-2-yl)pyridin-3-yl)-1-methyl-4-oxo-1,4-dihydroquinoline-3-carboxylic acid], the inhibition at 1 µM is 99%.

In the case of `CCNC(=O)Nc1cc(-c2nc(C(F)(F)F)cs2)c(-c2ccc3c(=O)c(C(=O)O)c[nH]c3c2)cn1` [Example 23, 7-(6-(3-Ethylureido)-4-(4-(trifluoromethyl)thiazol-2-yl)pyridin-3-yl)-4-oxo-1,4-dihydroquinoline-3-carboxylic acid], the inhibition at 1 µM was determined as 101%.

The assay is the same for the next values; noted with them: read-out: % Inhibition of S. aureus GyrB ATPase.
Turning to `CCNC(=O)Nc1cc(-c2nc(C(F)(F)F)cs2)c(-c2ccc3c(c2)c(=O)c(C(=O)O)cn3CCCN2CCCC2=O)cn1` [Example 7, 6-(6-(3-ethylureido)-4-(4-(trifluoromethyl)thiazol-2-yl)pyridin-3-yl)-4-oxo-1-(3-(2-oxopyrrolidin-1-yl)propyl)-1,4-dihydroquinoline-3-carboxylic acid sodium], the inhibition at 1 µM came to 100%.
